In US12599602B2, “Methods for treating cholestasis” (Mirum Pharmaceuticals, Inc., priority 2019, dated 2026):
Several values for one entry are separate records, joined by “and”; a condition that tells them apart may be missing. Equal values may be shown once. Read-outs that look alike come from different tables or passages of the source.

Columns and labels:
[1] = test system: Children with Alagille Syndrome
Experimental: Children aged 1-18 years with a diagnosis of ALGS and evidence of cholestasis were eligible to enroll in the ICONIC clinical study, see Tables 12-14. During a long-term extension, participants with sBA levels above the upper limit of normal and/or an ITCHRO(OBS) score >1.5 were eligible for the 400 μg/kg BID dose (all participants received the 400 μg/kg BID dose). Inclusion criteria for the ICONIC study included having cholestasis, which was defined as at least one of 1) sBA concentration (total sBA) >3× the upper limit of normal, 2) serum conjugated bilirubin concentration >1 mg/dL, 3) fat-soluble vitamin deficiency not otherwise explained, 4) serum gamma-glutamyl transferase concentration >3× the upper limit of normal, and 3) intractable pruritus explainable only by liver disease. Inclusion criteria also included having significant pruritus, which was defined as an average daily score of >2 on the ITCHRO(OBS) scale for 2 consecutive weeks (0=no pruritus; 4=most severe pruritus). Exclusion criteria included having surgically disrupted enterohepatic circulation, a liver transplant, decompensated cirrhosis, or having any liver disease other than ALGS.
sBA responders were defined as those patients achieving ≥50% reduction from baseline in sBA at week 12 or 18. ITCHRO responders were defined as those patients achieving at least a 1-point reduction from Baseline in weekly morning ITCHRO(OBS) score at week 12 or 18.
In the open label extension, the effect of higher doses was explored by increasing dosage to a maximum of 400 μg/kg BID in eligible participants.
Efficacy assessments were based on changes from baseline in sBA concentration, weekly average ITCHRO(OBS) scores (0, none; 4, most severe), CSS score (0, none; 4 most severe), and Clinician Xanthoma Scale score (0, none; 4, disabling). […] During the long-term extension, efficacy assessments were conducted every 12 weeks. Serum total cholesterol and serum 7αC4 concentration were also monitored during the ICONIC clinical study, among other measures.
sBA were measured using a fully validated liquid chromatography-electrospray ionization-mass electrospray (LC-ESI-MS) method using stable-isotope dilution analysis to measure serum concentrations of principal bile acids (cholic, chenodeoxycholic, ursodeoxycholic, deoxycholic acid, lithocholic, and their corresponding glycine and taurine conjugates). Serum samples were analyzed in the Division of Pathology and Laboratory Medicine, Cincinnati Children's Hospital Medical Center according to SOP #PATH.CMS.1033. Calibration standards of individual bile acids were in the range of 50-25,000 ng/mL and Quality Control samples were prepared at concentrations of 100, 500, 1000, 2500, and 20000 ng/mL. The intra- and inter-assay imprecision of the method for individual bile acids measured was within the accepted GLP quality assurance guidelines of <15% coefficient of variance for these QC samples. The lower limit of quantification of the assay was set at 100 ng/mL and the imprecision at this concentration was <20%. The limit of detection of the assay was 5 ng/mL. Total sBA is represented by the sum of the individual bile acid species measured.

[2] = test system: Overweight and obese adults; assay: Phase 1 blinded, placebo-controlled, dose-ranging clinical study (NCT02475317), fecal bile acid excretion; conditions: 10 mg dose, 7 days
Experimental: Participants consumed a low-fiber diet (<10 mg/day) for 2 days before randomization and during the 7-day treatment period. Measurements were taken of fBA, sBA concentration, and serum 7αC4 concentration (which is a biomarker of bile acid synthesis) prior to drug administration and at day 7.

[3] = Withdrawal-Week 22, Maralixibat group
[4] = first 18 weeks of treatment, 400 μg/kg QD
[5] = one line per Subject ID (Table 18)
[6] = one line per Subject ID (Table 19)
[7] = sBA Normalization (<8.5 μmol/L)

Substance: maralixibat
- weight Z-scores ([1]; 400 μg/kg QD then 400 μg/kg BID): dose-dependent increase in weight Z-scores
- Change in ItchRO from Baseline to Week 48 ([1]; ITCHRO(OBS) weekly morning average score, one line per Subject ID (Table 18)): 0.49 and −0.45 and 1.29 and −3.86 and 0.00 and −2.57 and −1.86 (2×) and −1.71 (2×) and −1.00 (2×) and −1.29 and −1.67 and −1.14 and −1.03 and −3.29 (2×) and −3.43 and −2.50 and −2.71 (2×) and −3.50 and −2.29 and −0.17 and −1.43 and −0.83 and −0.12
- sBA response, Week 48 (N = 28) n (%) ([1]; Normalization (<8.5 μmol/L)): 1 (3.6%)
- ItchRO (Obs) responders, Decrease from baseline ≥1 ([1]; Open-label Week 18): 67.7%
- ItchRO (Obs) responders, Decrease from baseline ≥1.25 ([1]; Open-label Week 18): 58.1%
- ItchRO (Obs) responders, Decrease from baseline ≥1.5 ([1]; Open-label Week 18): 51.6%
- ItchRO (Obs) responders, Decrease from baseline ≥1 ([1]; Open-label Week 48): 72.4%
- ItchRO (Obs) responders, Decrease from baseline ≥1.25 ([1]; Open-label Week 48): 58.6%
- ItchRO (Obs) responders, Decrease from baseline ≥1.5 ([1]; Open-label Week 48): 51.7%
- C4, Mean ([1]; Week 48, n = 15): 20.4 ng/mL
- Serum cholesterol, Mean ([1]; Week 48, n = 15): 340.3 mg/dL
- C4, Mean ([1]; Week 191, n = 15): 30.4 ng/mL
- Serum cholesterol, Mean ([1]; Week 191, n = 15): 277.5 mg/dL
- ItchRO (Obs) responders, Decrease from baseline ≥1 [1, 3]: 53.8%
- ItchRO (Obs) responders, Decrease from baseline ≥1.25 [1, 3]: 46.2%
- ItchRO (Obs) responders, Decrease from baseline ≥1.5 [1, 3]: 23.1%
- study days with minimal or no pruritus (ITCHRO(OBS)≤1) ([1]; after 98 weeks, across participants): over 89%
- Clinician xanthoma scale scores ([1]; all participants by week 48): improved significantly
- CSS score, mean reduction ([1]; at 191 weeks): 2.4 points
- ITCHRO(OBS) score, mean change from baseline ([1]; at 191 weeks): −2.5
- sBA levels, reduction from baseline ([1]; at 191 weeks): about 57%
- ITCHRO(OBS) final score ([1]; at 193 weeks): about 0.33
- ITCHRO(OBS) score, mean reduction ([1]; at 193 weeks): over 2 points
- CSS final average score ([1]; by week 48, all participants): about 1.5
- CSS scores, average decrease ([1]; by week 48, all participants): over 1.5 points
- Clinician Xanthoma Score, reduction from baseline ([1]; by week 191): 0.7 points
- ITCHRO(OBS) scores, average decrease relative to baseline ([1]; by week 193 (second statement of b611)): over 1.5 points
- PedsQL Multidimensional Fatigue Scale scores ([1]; core study and extension): Improvements
- tolerability ([1]; core study and extension, over three years): well tolerated
- tolerability ([1]; doses up to 800 μg/kg/day, treatment duration up to 4 years): generally well tolerated
- ITCHRO(OBS) scores, mean change from baseline [1, 4]: −1.7
- sBA concentration, decrease [1, 4]: 31%
- Serum Bile Acid, Change from Baseline to Week 48 [1, 5]: −166.3 μmol/L and −281.4 μmol/L and 166.4 μmol/L and −121.1 μmol/L and 4.3 μmol/L (2×) and −251.0 μmol/L and 3.3 μmol/L and −27.3 μmol/L and −155.5 μmol/L and −240.2 μmol/L and 9.0 μmol/L and 143.1 μmol/L and −112.2 μmol/L and 16.4 μmol/L and −10.9 μmol/L and −16.9 μmol/L and 54.5 μmol/L and −620.4 μmol/L and −23.9 μmol/L and −377.3 μmol/L and −205.9 μmol/L and −270.4 μmol/L and 25.5 μmol/L and −203.6 μmol/L and −96.4 μmol/L and −33.9 μmol/L and −56.4 μmol/L
- Serum Bile Acid, Week 48 [1, 5]: 131.8 µmol/L and 98.5 µmol/L and 578.1 µmol/L and 20.8 µmol/L and 333.0 µmol/L and 119.6 µmol/L and 117.7 µmol/L and 492.6 µmol/L and 427.9 µmol/L and 199.8 µmol/L and 29.2 µmol/L and 891.6 µmol/L and 163.4 µmol/L and 60.2 µmol/L and 12.0 µmol/L and 23.6 µmol/L and 126.1 µmol/L and 37.0 µmol/L and 7.0 µmol/L and 101.9 µmol/L and 293.3 µmol/L and 65.0 µmol/L and 110.9 µmol/L and 35.8 µmol/L and 208.0 µmol/L and 55.8 µmol/L and 15.6 µmol/L and 22.9 µmol/L
- ItchRO(Obs) Weekly Morning Average Score, Change from Baseline to Week 48 [1, 6]: −0.12 and 0.49 and −0.45 and 1.29 and −3.86 and 0.00 and −2.57 and −1.86 (2×) and −1.71 (2×) and −1.00 (2×) and −1.29 and −1.67 and −1.14 and −1.03 and −3.29 (2×) and −3.43 and −2.50 and −2.71 (2×) and −3.50 and −2.29 and −0.17 and −1.43 and −0.83
- ItchRO(Obs) Weekly Morning Average Score, Week 48 [1, 6]: 2.71 and 3.20 and 1.83 and 3.71 and 0.14 and 1.86 and 0.71 and 1.14 (2×) and 0.29 (2×) and 2.00 (2×) and 1.71 (2×) and 1.00 and 1.40 and 0.00 (7×) and 1.43 and 1.57 and 3.50 and 2.17
- Height Z-score, increase from baseline ([1]; participants in the ICONIC clinical study): 0.5
- growth after dose increase ([1]; patients (N=15) given 400 μg/kg BID after 400 μg/kg QD for in excess of about 40 weeks): further increase in growth from baseline
- ITCHRO(OBS), LS mean difference maralixibat vs placebo ([1]; randomized withdrawal): −1.5
- sBA levels, least squares mean difference maralixibat vs placebo ([1]; randomized withdrawal (week 18-22)): −114.0
- ItchRO(Obs) Weekly Morning Average Score, Average Change from Baseline [1, 7]: −3.50
- ItchRO(Obs) Weekly Morning Average Score, Week 48 Average Score [1, 7]: 0.00
- ItchRO(Obs) Weekly Morning Average Score, Average Change from Baseline ([1]; sBA ≥50% Reduction): −1.86
- ItchRO(Obs) Weekly Morning Average Score, Week 48 Average Score ([1]; sBA ≥50% Reduction): 1.07
- ItchRO(Obs) Weekly Morning Average Score, Average Change from Baseline ([1]; sBA ≥60% Reduction): −2.12
- ItchRO(Obs) Weekly Morning Average Score, Week 48 Average Score ([1]; sBA ≥60% Reduction): 0.82
- ItchRO(Obs) Weekly Morning Average Score, Average Change from Baseline ([1]; sBA ≥70% Reduction): −2.31
- ItchRO(Obs) Weekly Morning Average Score, Week 48 Average Score ([1]; sBA ≥70% Reduction): 0.62
- ItchRO(Obs) Weekly Morning Average Score, Average Change from Baseline ([1]; sBA ≥80% Reduction): −2.79
- ItchRO(Obs) Weekly Morning Average Score, Week 48 Average Score ([1]; sBA ≥80% Reduction): 0.11
- ItchRO(Obs) Weekly Morning Average Score, Average Change from Baseline ([1]; sBA ≥90% Reduction): −2.71
- ItchRO(Obs) Weekly Morning Average Score, Week 48 Average Score ([1]; sBA ≥90% Reduction): 0.00
- relation between reduction in sBA concentration and reduction of severity of pruritus (ITCHRO(OBS)) ([1]; week 48): positive correlation
- sBA response, Week 48 (N = 28) n (%) ([1]; ≥50% Reduction): 13 (46.4%)
- sBA response, Week 48 (N = 28) n (%) ([1]; ≥60% Reduction): 11 (39.3%)
- sBA response, Week 48 (N = 28) n (%) ([1]; ≥70% Reduction): 8 (28.6%)
- sBA response, Week 48 (N = 28) n (%) ([1]; ≥80% Reduction): 4 (14.3%)
- sBA response, Week 48 (N = 28) n (%) ([1]; ≥90% Reduction): 1 (3.6%)
- fBA excretion, mean change from baseline [2]: 515 µmol
